# How the values were obtained:
# mouse (Harlan ND4) = assay: mouse hot plate test (Mouse Jump test); type: in vivo; settings: subcutaneous injection, 15 minutes after administration, hot plate 55° C., latency to jump
# Description: In the mouse hot plate test, an upright acrylic cylinder comprising, as its base, a hot plate surface which is maintained at 55° C. is used. A mouse (Harlan ND4) is given, by subcutaneous injection, a predetermined amount of test compound dissolved or suspended in a suitable carrier, and, 15 minutes after administration of the test compound, the mouse is placed on the hot plate surface. The latency in seconds until the mouse jumps from the hot plate surface is measured. […] This must occur in a dose range which produces no motor incoordination or incapacitation. The following Table records ED50 results obtained from this test. By the term "ED50 " is meant that dose which produces analgesia in 50% of the mice tested. Analgesia is defined as a response latency in the presence of test compound that is equal to or greater than the control response latency plus two standard deviations. The percent analgesia data are converted to probits, and the ED50 is calculated by regression analysis of the dose-response data. Each dose response curve must have at least four points, and each point is determined using data from a minimum of ten treated mice and ten control mice.
# Cox Standard albino mice = assay: mouse writhing test (acetic acid induced); type: in vivo; settings: 0.6% acetic acid i.p.
# Description: In the mouse writhing test, a writhing response is defined as a contraction of the abdominal musculature followed by extension of the hind limbs. Acetic acid administered intraperitoneally (10 ml./kg.) at a concentration of 0.6% was used to induce a writhing response. Five Cox Standard albino mice weighing 20-22 g. after being fasted overnight were observed simultaneously for the writhing response. Each mouse was used only once. The observation period was ten minutes and started five minutes following administration of the acetic acid. Inhibition of mouse writhing was calculated from the total number of writhes in the control and test compound-treated groups according to the following formula: [formula]
# The dose required to reduce the frequency of writhing by 50% is defined as the ED50 and is calculated by "The Use of Regression Line in Reverse", [Brownlee, K. A., Statistical Theory and Methodology in Science and Engineering, 2nd Ed., New York, John Wiley and Sons (1965)].
substance,measurement,setting,value
"L-(N-Methyl)tyrosyl-D-alanylglycine, [N-ethyl-N-(1-benzyl-2-dimethyloxidoamino)ethyl] amide, Diacetate Salt",ED50 in the Mouse Jump test (dose which produces analgesia in 50% of the mice),mouse (Harlan ND4),0.0025 mg/kg
same,ED50 in the Mouse Writhing test (dose reducing frequency of writhing by 50%),Cox Standard albino mice; oral administration,5.6 mg/kg
same,ED50 in the Mouse Writhing test (dose reducing frequency of writhing by 50%),Cox Standard albino mice; subcutaneous administration,0.1 mg/kg

# From patent US4473497A, “Pharmacologically active peptides” (Eli Lilly and Company, priority 1983, dated 1984)
